Source: patent US20120010254A1 (priority 2008, published 2012)
Where a name gives a salt, the structure may show the parent alone. Read-outs that look alike come from different tables or passages of the source.

Experiments:
[1] = biological target: influenza virus sialidase (N1) (Influenza A virus, UniProt Q9WAA1); assay: biochemical
[2] = test system: avian influenza virus H5N1; conditions: literature value, Li et al. ref. 12; read-out: EC50 value against avian influenza virus H5N1; cited from earlier work

influenza virus sialidase (N1), sequence (Q9WAA1 whole entry, looked up): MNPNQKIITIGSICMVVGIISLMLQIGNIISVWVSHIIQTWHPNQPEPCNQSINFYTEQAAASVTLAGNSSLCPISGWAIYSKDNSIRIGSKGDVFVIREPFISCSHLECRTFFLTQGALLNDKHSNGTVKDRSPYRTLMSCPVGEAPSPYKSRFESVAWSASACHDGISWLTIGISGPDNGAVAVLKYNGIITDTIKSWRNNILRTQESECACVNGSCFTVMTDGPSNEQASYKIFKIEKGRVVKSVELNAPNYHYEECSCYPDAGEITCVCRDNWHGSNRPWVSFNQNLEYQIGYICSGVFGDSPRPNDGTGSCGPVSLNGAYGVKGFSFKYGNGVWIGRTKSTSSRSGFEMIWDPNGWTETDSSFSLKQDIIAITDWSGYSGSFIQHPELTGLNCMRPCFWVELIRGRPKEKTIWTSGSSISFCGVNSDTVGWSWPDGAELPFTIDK

4-Acetylamino-3-[4-((17α)-estra-1,3,5(10)-triene-3,17-dihydroxy-17-yl)-[1,2,3]triazol-1-yl]-5-(1-ethyl-propoxy)-cyclohex-1-enecarboxylic acid L-arginine salt [Compound 44]
Ki ([1]; read-out: Ki): 59 µM

CC(=O)N[C@H]1[C@H]([C@H](O)[C@H](O)CO)OC(C(=O)O)=C[C@@H]1N [4-amino-4-deoxy-Neu5Ac2en, reference compound]
Ki ([1]; read-out: Ki): 0.01 µM

CC(=O)N[C@H]1[C@H]([C@H](O)[C@H](O)CO)OC(C(=O)O)=C[C@@H]1NC(=N)N [4-deoxy-4-guanidino-Neu5Ac2en]
EC50 [2]: 2.8 µM

CCC(CC)OC1CC(C(=O)O)=CC(n2cc(CCCO)nn2)C1NC(C)=O (centres unmarked) [Compound 1, 4-Acetylamino-5-(1-ethyl-propoxy)-3-[4-(3-hydroxy-propyl)-[1,2,3]triazol-1-yl]-cyclohex-1-enecarboxylic acid]
Ki [1]: 5 µM

CCC(CC)OC1CC(C(=O)O)=CC(n2cc(C(O)CC)nn2)C1NC(C)=O (centres unmarked) [Compound 2, 4-Acetylamino-5-(1-ethyl-propoxy)-3-[4-(1-hydroxy-propyl)-[1,2,3]triazol-1-yl]-cyclohex-1-enecarboxylic acid]
Ki [1]: 0.7 µM

CCC(CC)OC1CC(C(=O)O)=CC(n2cc(C(C)(C)O)nn2)C1NC(C)=O (centres unmarked) [Compound 3, 4-Acetylamino-5-(1-ethyl-propoxy)-3-[4-(1-hydroxy-1-methyl-ethyl)-[1,2,3]triazol-1-yl]-cyclohex-1-enecarboxylic acid]
Ki [1]: 2 µM

CCC(CC)OC1CC(C(=O)O)=CC(n2cc(C3(O)CCCCC3)nn2)C1NC(C)=O (centres unmarked) [Compound 5, 4-Acetylamino-5-(1-ethyl-propoxy)-3-[4-(1-hydroxy-cyclohexyl)-[1,2,3]triazol-1-yl]-cyclohex-1-enecarboxylic acid]
IC50 [1]: 48 µM
Inhibitory activity in words [1]: less effective as inhibitors

CCC(CC)OC1CC(C(=O)O)=CC(n2cc(C3(O)CCCC3)nn2)C1NC(C)=O (centres unmarked) [Compound 6, 4-Acetylamino-5-(1-ethyl-propoxy)-3-[4-(1-hydroxy-cyclopentyl)-[1,2,3]triazol-1-yl]-cyclohex-1-enecarboxylic acid]
IC50 [1]: 110 µM
Inhibitory activity in words [1]: less effective as inhibitors

CCC(CC)OC1CC(C(=O)O)=CC(N)C1NC(C)=O (centres unmarked) [Compound 38, 4-Acetylamino-3-amino-5-(1-ethyl-propoxy)-cyclohex-1-enecarboxylic acid, reference compound]
Ki [1]: 0.02 µM

CCC(CC)OC1CC(C(=O)O)=CC(NC(=N)N)C1NC(C)=O (centres unmarked) [Compound 39, 4-Acetylamino-5-(1-ethyl-propoxy)-3-guanidino-cyclohex-1-enecarboxylic acid Trifluoroacetate salt]
Ki [1]: 0.0048 µM

CCC(CC)OC1CC(C(=O)O)=CC(n2cc(CCc3ccccc3)nn2)C1NC(C)=O [Compound 43, 4-Acetylamino-5-(1-ethyl-propoxy)-3-(4-phenethyl-[1,2,3]triazol-1-yl)-cyclohex-1-enecarboxylic acid L-arginine salt]
Ki [1]: 12 µM

CCC(O)c1cn([C@H]2C=C(C(=O)O)O[C@@H]([C@H](O)[C@H](O)CO)[C@@H]2NC(C)=O)nn1 (some centres unmarked) [formula (B)]
EC50 [2]: 6.4 µM
